The source of these data is patent US5112992A, “Production of polycarboxylic acids with hafnium-activated cobalt catalyst” (Amoco Corporation, priority 1991, dated 1992).

The nature of data set [1]: Metal remaining soluble in filtrate (pyromellitic acid) after durene oxidation.
Data set [2] in a line: Solubility of hafnium and zirconium tetrabromides in acetic acid-water mixtures in presence of trimellitic acid.
Method: Solubility of hafnium compounds, i.e., hafnium bromide, was determined in acetic acid-water mixtures in the presence of trimellitic acid and pyromellitic acid. Hafnium tetrabromide, 0.0012M, was heated in a 20% water-acetic acid solution to reflux. Trimellitic acid (0.71M) was added.

The structures appear in SMILES notation.

As for `[Br][Hf]([Br])([Br])[Br]` [Hafnium tetrabromide], in data set [1] (Example V: durene oxidation reactor effluent cooled to room temperature and filtered), the metal remained soluble is 36%. Besides, the “% Soluble” value in data set [1] (Metal in filtrate after durene oxidation) came out at 32%; in data set [2] (Metal + trimellitic acid in 20% H2O-HOAc at 25° C., solution cooled and solids filtered off, molar basis), 36%; in data set [2] (Metal + trimellitic acid in 20% H2O-HOAc at 100° C.), 100%. Further, in data set [2] (0.0012M tetrabromide in 20% water-acetic acid at reflux, trimellitic acid 0.71M added), the “Appearance of solution after adding trimellitic acid” value is “remained clear”.
